Patent publication US7649092B2, “Urea derivatives as calcium channel blockers” (Neuromed Pharmaceuticals Ltd., priority 2004, dated 2010)
Like-named read-outs stand apart in the source and are kept apart here.

Key:
[1] = molecular target: T1, rat brain N-type calcium channel subunits (α1B+α2δ+β1b cDNA subunits) (Rattus norvegicus, UniProt Q02294); assay: N-type calcium channel block, whole cell patch clamp in HEK 293 cells; format: cell-based; settings: holding potential −80 mV to +10 mV
T1 construct: expressed in transfected cells
Description: N-type calcium channel blocking activity was assayed in human embryonic kidney cells, HEK 293, stably transfected with the rat brain N-type calcium channel subunits (α1B+α2δ+β1b cDNA subunits). Alternatively, N-type calcium channels (α1B+α2δ+β1b cDNA subunits), L-type channels (α1C+α2δ+β1b cDNA subunits) and P/Q-type channels (α1A+α2δ+β1b cDNA subunits) were transiently expressed in HEK 293 cells. Briefly, cells were cultured in Dulbecco's modified eagle medium (DMEM) supplemented with 10% fetal bovine serum, 200 U/ml penicillin and 0.2 mg/ml streptomycin at 37° C. with 5% CO2. At 85% confluency cells were split with 0.25% trypsin/1 mM EDTA and plated at 10% confluency on glass coverslips. At 12 hours the medium was replaced and the cells transiently transfected using a standard calcium phosphate protocol and the appropriate calcium channel cDNA's. Fresh DMEM was supplied and the cells transferred to 28° C./5% CO2. Cells were incubated for 1 to 2 days prior to whole cell recording.
Whole cell patch clamp experiments were performed using an Axopatch 200B amplifier (Axon Instruments, Burlingame, Calif.) linked to a personal computer equipped with pCLAMP software. The external and internal recording solutions contained, respectively, 5 mM BaCl2, 10 mM MgCl2, 10 mM HEPES, 40 mM TEAC1, 10 mM glucose, 87.5 mM CsCl (pH 7.2) and 108 mM CsMS, 4 mM MgCl2, 9 mM EGTA, 9 mM HEPES (pH 7.2). Currents were typically elicited from a holding potential of −80 mV to +10 mV using Clampex software (Axon Instruments). Typically, currents were first elicited with low frequency stimulation (0.067 Hz) and allowed to stabilize prior to application of the compounds. The compounds were then applied during the low frequency pulse trains for two to three minutes to assess tonic block, and subsequently the pulse frequency was increased to 0.2 Hz to assess frequency dependent block. Data were analyzed using Clampfit (Axon Instruments) and SigmaPlot 4.0 (Jandel Scientific).

[2] = test system: rat formalin model; assay: Formalin-induced pain model (paw flinches); format: in vivo; settings: 30 mg/kg IP, 10 min before formalin, ±SEM, saline control=100%
Description: The effects of intrathecally delivered compounds of the invention on the rat formalin model were measured. The compounds were reconstituted to stock solutions of approximately 10 mg/ml in propylene glycol. Eight Holtzman male rats of 275-375 g size were randomly selected per test article.
The following study groups were used, with test article, vehicle control (propylene glycol) and saline delivered intraperitoneally (IP):
Prior to initiation of drug delivery baseline behavioral and testing data were taken.
On the morning of testing, a small metal band (0.5 g) was loosely placed around the right hind paw. The rat was placed in a cylindrical Plexiglas chamber for adaptation a minimum of 30 minutes. Test Article or Vehicle Control Article was administered 10 minutes prior to formalin injection (50 μl of 5% formalin) into the dorsal surface of the right hind paw of the rat. The animal was then placed into the chamber of the automated formalin apparatus where movement of the formalin injected paw was monitored and the number of paw flinches tallied by minute over the next 60 minutes (Malmberg, A. B., et al., Anesthesiology (1993) 79:270-281).
Results are presented as Maximum Possible Effect ±SEM, where saline control=100%.

[3] = molecular target: T2, human DiG T-type channels (Homo sapiens, UniProt O43497); assay: T-type calcium channel block, whole-cell patch clamp in HEK cell lines; format: cell-based
T2 construct: expressed in transfected cells
Description: Standard patch-clamp techniques were employed to identify blockers of T-type currents. Briefly, previously described HEK cell lines stably expressing human DiG T-type channels were used for all the recordings (passage #: 4-20, 37° C., 5% CO2). To obtain T-type currents, plastic dishes containing semi-confluent cells were positioned on the stage of a ZEISS AXIOVERT S100 microscope after replacing the culture medium with external solution (see below). Whole-cell patches were obtained using pipettes (borosilicate glass with filament, O.D.: 1.5 mm, I.D.: 0.86 mm, 10 cm length), fabricated on a SUTTER P-97 puller with resistance values of ˜5 MΩ (see below for internal solution).
In the non-inactivating protocol, the holding potential is set at −110 mV and with a pre-pulse at −100 mV for 1 second prior to the test pulse at −40 mV for 50 ms. […]
Test compounds were dissolved in external solution, 0.1-0.01% DMSO. After ˜10 min rest, they were applied by gravity close to the cell using a WPI microfil tubing. The “non-inactivated” pre-pulse was used to examine the resting block of a compound. The “inactivated” protocol was employed to study voltage-dependent block. However, the initial data shown below were mainly obtained using the non-inactivated protocol only. IC50 values are shown for various compounds of the invention in Table 5.

[4] = low frequency stimulation 0.067 Hz (tonic block), read-out: IC50 @ 0.067 Hz
[5] = pulse frequency 0.2 Hz (frequency dependent block), read-out: IC50 @ 0.2 Hz
[6] = inactivation protocol, @ −80 mV, read-out: IC50 @ −80 mV
[7] = non-inactivating protocol, pre-pulse −100 mV, test pulse −40 mV, read-out: IC50 @ −100 mV

T1 sequence (Q02294 whole entry): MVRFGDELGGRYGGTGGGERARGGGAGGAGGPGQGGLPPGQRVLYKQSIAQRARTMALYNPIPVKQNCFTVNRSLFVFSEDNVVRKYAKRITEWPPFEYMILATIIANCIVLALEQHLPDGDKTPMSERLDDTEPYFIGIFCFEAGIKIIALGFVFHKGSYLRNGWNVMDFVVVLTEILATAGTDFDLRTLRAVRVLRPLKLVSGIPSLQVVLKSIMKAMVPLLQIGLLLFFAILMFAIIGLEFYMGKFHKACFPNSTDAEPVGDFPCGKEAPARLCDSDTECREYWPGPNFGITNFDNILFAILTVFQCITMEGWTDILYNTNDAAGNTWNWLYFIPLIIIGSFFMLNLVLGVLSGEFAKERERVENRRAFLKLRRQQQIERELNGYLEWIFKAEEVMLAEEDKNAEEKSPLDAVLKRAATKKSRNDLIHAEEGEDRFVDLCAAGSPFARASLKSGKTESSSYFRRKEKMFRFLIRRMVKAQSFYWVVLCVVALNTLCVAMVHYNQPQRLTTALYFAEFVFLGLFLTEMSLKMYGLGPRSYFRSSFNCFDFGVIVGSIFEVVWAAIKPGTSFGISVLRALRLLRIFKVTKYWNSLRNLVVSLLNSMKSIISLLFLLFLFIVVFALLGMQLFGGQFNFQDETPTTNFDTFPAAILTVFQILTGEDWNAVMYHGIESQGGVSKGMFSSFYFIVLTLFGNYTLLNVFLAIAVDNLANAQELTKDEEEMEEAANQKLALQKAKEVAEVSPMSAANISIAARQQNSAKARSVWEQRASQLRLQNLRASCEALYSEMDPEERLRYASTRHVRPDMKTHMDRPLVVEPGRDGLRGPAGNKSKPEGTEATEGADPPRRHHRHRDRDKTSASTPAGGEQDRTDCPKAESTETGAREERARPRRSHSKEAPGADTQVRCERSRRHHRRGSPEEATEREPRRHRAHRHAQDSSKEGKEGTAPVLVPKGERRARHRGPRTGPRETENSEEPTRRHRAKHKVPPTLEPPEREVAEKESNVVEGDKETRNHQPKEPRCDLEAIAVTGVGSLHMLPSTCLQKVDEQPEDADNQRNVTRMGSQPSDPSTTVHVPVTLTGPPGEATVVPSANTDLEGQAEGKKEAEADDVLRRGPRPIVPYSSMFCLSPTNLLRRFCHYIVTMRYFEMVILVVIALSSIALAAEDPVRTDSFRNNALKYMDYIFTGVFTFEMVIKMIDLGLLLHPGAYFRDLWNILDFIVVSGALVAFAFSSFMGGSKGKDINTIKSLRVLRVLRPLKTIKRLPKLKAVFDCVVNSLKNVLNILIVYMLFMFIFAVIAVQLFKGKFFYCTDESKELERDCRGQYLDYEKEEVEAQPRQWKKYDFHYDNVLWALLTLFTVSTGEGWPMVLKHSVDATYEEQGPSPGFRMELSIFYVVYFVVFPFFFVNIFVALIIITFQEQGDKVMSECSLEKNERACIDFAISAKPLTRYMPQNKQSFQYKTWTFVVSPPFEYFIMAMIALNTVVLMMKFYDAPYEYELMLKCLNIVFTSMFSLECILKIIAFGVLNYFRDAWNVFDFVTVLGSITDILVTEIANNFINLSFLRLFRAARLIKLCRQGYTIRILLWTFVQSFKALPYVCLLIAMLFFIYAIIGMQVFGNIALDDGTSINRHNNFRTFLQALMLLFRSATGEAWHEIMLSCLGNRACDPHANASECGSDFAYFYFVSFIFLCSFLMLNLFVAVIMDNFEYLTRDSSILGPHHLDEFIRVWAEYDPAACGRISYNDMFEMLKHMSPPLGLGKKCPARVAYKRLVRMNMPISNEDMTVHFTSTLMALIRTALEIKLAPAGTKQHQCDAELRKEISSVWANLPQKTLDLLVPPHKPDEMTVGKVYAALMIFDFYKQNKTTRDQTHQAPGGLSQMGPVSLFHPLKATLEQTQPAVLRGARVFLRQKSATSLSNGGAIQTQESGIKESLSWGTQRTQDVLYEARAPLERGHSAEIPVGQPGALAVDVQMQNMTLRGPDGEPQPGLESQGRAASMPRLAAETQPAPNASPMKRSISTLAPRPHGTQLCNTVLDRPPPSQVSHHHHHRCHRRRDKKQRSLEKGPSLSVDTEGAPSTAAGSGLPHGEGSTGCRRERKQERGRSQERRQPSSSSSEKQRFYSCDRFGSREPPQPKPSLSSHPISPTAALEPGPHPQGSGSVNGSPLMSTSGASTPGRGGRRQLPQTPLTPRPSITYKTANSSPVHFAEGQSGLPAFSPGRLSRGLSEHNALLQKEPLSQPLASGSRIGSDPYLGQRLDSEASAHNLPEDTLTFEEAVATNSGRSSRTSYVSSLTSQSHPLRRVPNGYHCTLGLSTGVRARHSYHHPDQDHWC
T1 sequence (P54290 25-1091 partner): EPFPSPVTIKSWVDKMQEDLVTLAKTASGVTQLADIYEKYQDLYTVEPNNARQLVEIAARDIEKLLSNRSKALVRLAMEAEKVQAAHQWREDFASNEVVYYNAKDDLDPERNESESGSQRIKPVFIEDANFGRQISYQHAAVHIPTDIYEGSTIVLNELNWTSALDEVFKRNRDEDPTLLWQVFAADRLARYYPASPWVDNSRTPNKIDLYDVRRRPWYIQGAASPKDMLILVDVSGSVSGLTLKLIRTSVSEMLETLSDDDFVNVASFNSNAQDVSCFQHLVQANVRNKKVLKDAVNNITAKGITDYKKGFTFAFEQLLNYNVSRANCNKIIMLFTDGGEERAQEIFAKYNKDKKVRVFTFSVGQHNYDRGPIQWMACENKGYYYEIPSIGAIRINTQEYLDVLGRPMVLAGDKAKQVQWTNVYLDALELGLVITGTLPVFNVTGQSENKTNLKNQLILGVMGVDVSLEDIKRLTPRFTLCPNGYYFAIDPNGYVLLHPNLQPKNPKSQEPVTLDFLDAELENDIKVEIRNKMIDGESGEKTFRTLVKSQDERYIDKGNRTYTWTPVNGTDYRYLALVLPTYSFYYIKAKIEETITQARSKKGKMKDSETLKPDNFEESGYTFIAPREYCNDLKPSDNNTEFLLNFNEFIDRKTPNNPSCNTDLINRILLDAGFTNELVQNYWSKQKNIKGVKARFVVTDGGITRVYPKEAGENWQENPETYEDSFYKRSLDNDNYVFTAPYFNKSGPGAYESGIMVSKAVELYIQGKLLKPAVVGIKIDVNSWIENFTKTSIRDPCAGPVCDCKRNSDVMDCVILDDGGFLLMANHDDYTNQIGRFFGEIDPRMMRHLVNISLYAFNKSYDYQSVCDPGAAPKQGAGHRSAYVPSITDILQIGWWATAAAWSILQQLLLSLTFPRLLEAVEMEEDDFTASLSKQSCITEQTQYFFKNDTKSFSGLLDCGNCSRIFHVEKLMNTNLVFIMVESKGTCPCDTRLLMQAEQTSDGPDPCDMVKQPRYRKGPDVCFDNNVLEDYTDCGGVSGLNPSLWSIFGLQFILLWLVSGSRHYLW
T1 sequence (P54283 whole entry partner): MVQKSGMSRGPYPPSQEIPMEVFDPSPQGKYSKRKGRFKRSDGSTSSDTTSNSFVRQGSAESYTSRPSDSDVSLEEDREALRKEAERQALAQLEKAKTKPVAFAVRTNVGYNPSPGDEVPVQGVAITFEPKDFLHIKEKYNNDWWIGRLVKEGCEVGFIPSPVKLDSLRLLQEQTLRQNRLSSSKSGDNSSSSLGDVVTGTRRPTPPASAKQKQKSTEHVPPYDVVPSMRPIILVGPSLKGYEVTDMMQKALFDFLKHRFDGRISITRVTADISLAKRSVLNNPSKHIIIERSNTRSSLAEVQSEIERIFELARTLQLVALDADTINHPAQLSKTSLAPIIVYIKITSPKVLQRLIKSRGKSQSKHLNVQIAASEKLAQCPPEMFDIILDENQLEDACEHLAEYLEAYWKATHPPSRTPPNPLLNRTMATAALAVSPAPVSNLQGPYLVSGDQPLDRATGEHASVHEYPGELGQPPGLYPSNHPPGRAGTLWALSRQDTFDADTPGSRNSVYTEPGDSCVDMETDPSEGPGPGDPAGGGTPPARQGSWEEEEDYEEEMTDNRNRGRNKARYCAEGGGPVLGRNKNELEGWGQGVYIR

Row | Structure (SMILES) | IC50 [1, 4] | IC50 [1, 5] | IC50 [3, 6] | IC50 [3, 7] | Phase I (% MPE) [2] | Phase II Total (% MPE) [2] | Phase IIA (% MPE) [2] | Phase IIB (% MPE) [2]
1 | CN1CCCC(C(c2ccccc2)N2CCN(C(=O)NC(c3ccccc3)c3ccccc3)CC2)C1 (stereo not drawn) [Compound 22, 4-[(1-Methyl-piperidin-3-yl)-phenyl-methyl]-piperazine-1-carboxylic acid benzhydryl-amide] | 6300 nM | 2150 nM |  |  |  |  |  | 
2 | CN(C)CCCN1CCN(C(=O)NC(c2ccccc2)c2ccccc2)CC1 [Compound 11, 4-(3-Dimethylamino-propyl)-piperazine-1-carboxylic acid benzhydryl-amide] | 2170 nM | 990 nM |  |  | 59 ± 13 % MPE | 60 ± 12 % MPE | 50 ± 14 % MPE | 94 ± 22 % MPE
3 | CN1CCC[C@H]1CN1CCN(C(=O)NC(c2ccccc2)c2ccccc2)CC1 [Compound 25] | > 5900 nM |  |  |  |  |  |  | 
4 | CN(C(=O)N1CCN(CCN2CCCC2)CC1)C(c1ccccc1)c1ccccc1 [Compound 32, 4-(2-pyrrolidin-1-ylethyl)-piperazine-1-carboxylic acid benzhydryl-methyl-amide] | > 20000 nM | > 8800 nM | > 6720 nM | > 23000 nM |  |  |  | 
5 | CN1CCC(C(c2ccccc2)N2CCN(C(=O)NC(c3ccccc3)c3ccccc3)CC2)CC1 (stereo not drawn) [Compound 20, 4-[(1-Methyl-piperidin-4-yl)-phenyl-methyl]-piperazine-1-carboxylic acid benzhydryl-amide] |  |  | 3400 nM | 5100 nM |  |  |  | 
6 | CN1CCCC(CN2CCN(C(=O)NC(c3ccccc3)c3ccccc3)CC2)C1 (stereo not drawn) [Compound 12, 4-(1-Methyl-piperidin-3-ylmethyl)-piperazine-1-carboxylic acid benzhydryl-amide] | 1700 nM | 490 nM |  |  |  |  |  | 
7 | Cc1ccc(C(C2CCN(C)CC2)N2CCN(C(=O)NC(c3ccccc3)c3ccccc3)CC2)c(C)c1 (stereo not drawn) [Compound 36, 4-[(1-Methyl-piperidin-4-yl)-(2,4-dimethyl-phenyl)-methyl]-piperazine-1-carboxylic acid benzhydryl-amide] |  |  | 1300 nM | 1900 nM |  |  |  | 
8 | O=C(NC(c1ccccc1)c1ccccc1)N1CCN(C(c2ccccc2)c2ccc(Cl)cc2Cl)CC1 (stereo not drawn) [Compound 2, 4-[(2,4-Dichloro-phenyl)-phenyl-methyl]-piperazine-1-carboxylic acid benzhydryl-amide] | 1480 nM | 1480 nM | 66 nM | 221 nM |  |  |  | 
9 | CN1CCC(C(c2ccc(Cl)cc2)N2CCN(C(=O)NC(c3ccccc3)c3ccccc3)CC2)CC1 (stereo not drawn) [Compound 24, 4-[(1-Methyl-piperidin-4-yl)-(4-chloro-phenyl)-methyl]-piperazine-1-carboxylic acid benzhydryl-amide] | 4310 nM | 2460 nM |  |  |  |  |  | 
10 | CN1CCC(C(c2ccccc2Cl)N2CCN(C(=O)NC(c3ccccc3)c3ccccc3)CC2)CC1 (stereo not drawn) [Compound 37, 4-[(1-Methyl-piperidin-4-yl)-(2-chloro-phenyl)-methyl]-piperazine-1-carboxylic acid benzhydryl-amide] | 1330 nM | 910 nM |  |  |  |  |  | 
11 | O=C(NC(c1ccccc1)c1ccccc1)N1CCN(C(c2ccccc2)C2CCNCC2)CC1 (stereo not drawn) [Compound 35, 4-[Piperidin-4-yl-phenyl-methyl]-piperazine-1-carboxylic acid benzhydryl-amide] | 3470 nM | 2160 nM |  | 663 nM |  |  |  | 
12 | CN1CCC(C(c2cccc(Cl)c2)N2CCN(C(=O)NC(c3ccccc3)c3ccccc3)CC2)CC1 (stereo not drawn) [Compound 38, 4-[(1-Methyl-piperidin-4-yl)-(3-chloro-phenyl)-methyl]-piperazine-1-carboxylic acid benzhydryl-amide] | 3310 nM | 1560 nM |  |  |  |  |  | 
13 | Cc1ccc(C(c2ccccc2)N2CCN(C(=O)NC(c3ccccc3)c3ccccc3)CC2)c(C)c1 (stereo not drawn) [Compound 3] | 2710 nM | 2710 nM | 28 nM | 75 nM |  |  |  | 

Further compounds by falling IC50 [1, 4], results first:

Row | IC50 [1, 4] | IC50 [1, 5] | IC50 [3, 6] | IC50 [3, 7] | Structure (SMILES) | Phase I (% MPE) [2] | Phase II Total (% MPE) [2] | Phase IIA (% MPE) [2] | Phase IIB (% MPE) [2]
14 | 1000 nM | 1000 nM | 2000 nM | 15000 nM | O=C(NC(c1ccccc1)c1ccccc1)N1CCN(CCN2CCCC2)CC1 [Compound 21] |  |  |  | 
15 | 660 nM | 310 nM |  |  | CN(C(=O)N1CCN(C(c2ccccc2)c2ccccc2)CC1)C(c1ccccc1)c1ccccc1 [Compound 39, 4-(Diphenyl-methyl)-piperazine-1-carboxylic acid benzhydryl-methyl-amide] |  |  |  | 
16 | 390 nM | 340 nM | 53 nM | 242 nM | O=C(NC(c1ccccc1)c1ccccc1)N1CCN(C(c2ccccc2)c2cccc(Cl)c2)CC1 (stereo not drawn) [Compound 5, 4-[(3-Chloro-phenyl)-phenyl-methyl]-piperazine-1-carboxylic acid benzhydryl-amide] | 54 ± 11 % MPE | 65 ± 10 % MPE | 52 ± 10 % MPE | 105 ± 13 % MPE
17 | 290 nM | 280 nM | 56 nM | 171 nM | O=C(NC(c1ccccc1)c1ccccc1)N1CCN(C(c2ccccc2)c2ccc(Cl)cc2)CC1 (stereo not drawn) [Compound 4, 4-[(4-Chloro-phenyl)-phenyl-methyl]-piperazine-1-carboxylic acid benzhydryl-amide] | 71 ± 15 % MPE | 74 ± 11 % MPE | 70 ± 13 % MPE | 88 ± 9 % MPE
18 | 280 nM | 180 nM | 47 nM | 147 nM | O=C(NC(c1ccccc1)c1ccccc1)N1CCN(C(c2ccccc2)c2ccccc2Cl)CC1 (stereo not drawn) [Compound 6, 4-[(2-Chloro-phenyl)-phenyl-methyl]-piperazine-1-carboxylic acid benzhydryl-amide] | 53 ± 10 % MPE | 71 ± 7 % MPE | 63 ± 9 % MPE | 99 ± 5 % MPE
19 | 260 nM | 260 nM | 20000 nM | 20000 nM | CN1CCC(CN2CCN(C(=O)NC(c3ccccc3)c3ccccc3)CC2)CC1 [Compound 10, 4-(1-Methyl-piperidin-4-yl-methyl)-piperazine-1-carboxylic acid benzhydryl-amide] |  |  |  | 
20 | 230 nM | 200 nM | 324 nM | 4200 nM | O=C(NC(c1ccccc1)c1ccccc1)N1CCN(C(c2ccccc2)c2cccc(Cl)c2Cl)CC1 (stereo not drawn) [Compound 7, 4-[(2,3-Dichloro-phenyl)-phenyl-methyl]-piperazine-1-carboxylic acid benzhydryl-amide] | 61 ± 6 % MPE | 71 ± 7 % MPE | 63 ± 9 % MPE | 85 ± 20 % MPE
